Tests used:
[1] = system: ET receptors (ETA and ETB); details: cited from earlier work
[2] = cited from earlier work
[3] = Drug-drug interaction observations
[4] = molecular target: T1, human PXR (Homo sapiens, UniProt O75469); experiment: Activation of human PXR; type: cell-based
T1 sequence (O75469 1-434): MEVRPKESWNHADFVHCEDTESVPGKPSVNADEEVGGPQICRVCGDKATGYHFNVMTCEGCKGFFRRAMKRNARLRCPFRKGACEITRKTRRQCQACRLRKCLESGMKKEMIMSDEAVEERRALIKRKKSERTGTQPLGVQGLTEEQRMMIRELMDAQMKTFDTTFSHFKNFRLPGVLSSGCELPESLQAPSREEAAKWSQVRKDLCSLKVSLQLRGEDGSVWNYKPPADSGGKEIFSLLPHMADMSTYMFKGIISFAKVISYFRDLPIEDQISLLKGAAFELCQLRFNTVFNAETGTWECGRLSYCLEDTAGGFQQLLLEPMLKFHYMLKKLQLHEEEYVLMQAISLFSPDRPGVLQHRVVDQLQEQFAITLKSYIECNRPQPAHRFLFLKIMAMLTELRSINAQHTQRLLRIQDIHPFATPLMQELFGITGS

[5] = system: CYP3A4; experiment: CYP3A4 induction in human hepatocytes; type: in vitro ADME
[6] = Effect of macitentan on decrease in hemoglobin concentration, pooled Phase I studies, Emax model; type: in vivo, human; details: healthy volunteers
Source text: Hemoglobin measurements were pooled from 3 Phase I clinical studies in healthy volunteers:
Study AC-055-102: Investigation of the PK, PD, safety and tolerability of macitentan in male subjects (the study protocol is described in the following publication: Sidharta et al., Safety, tolerability, pharmacokinetics, and pharmacodynamics of macitentan, an endothelin receptor antagonist, in an ascending multiple-dose study in healthy subjects. J. Clin. Pharmacol. (2013), 53(11),1131-1138)
Study AC-055-116: Investigation of the PK, PD, safety and tolerability of macitentan in male Japanese subjects (the study protocol is described in the following publication: Yokoyama et al., Tolerability, Safety, Pharmacokinetics, and Pharmacodynamics of Macitentan, a New Endothelin Receptor Antagonist, in Healthy Japanese Male Subjects. Rinsho yakuri/Japanese Journal of Clinical Pharmacology and Therapeutics (2016), 47, 143-150) […]
Hemoglobin concentrations measured in the morning of Day 11 of macitentan treatment and at baseline on Day −1 were used in the analysis. […]

[7] = system: plasma ET-1; details: healthy human subjects, 1, 3, 10 and 30 mg; cited from earlier work
[8] = system: rats; details: cited from earlier work
[9] = molecular target: T2, BCRP transporters (Homo sapiens, UniProt Q9UNQ0); experiment: Effect on pharmacokinetics of rosuvastatin (BCRP transporters); type: in vivo; details: macitentan 10 mg per day o.d.
T2 construct: BCRP is an efflux pump located in the gut, liver canalicular membrane, and kidney; from tissue; host or cells: gut, liver, kidney of dosed subjects (in vivo)
T2 sequence (Q9UNQ0 1-655): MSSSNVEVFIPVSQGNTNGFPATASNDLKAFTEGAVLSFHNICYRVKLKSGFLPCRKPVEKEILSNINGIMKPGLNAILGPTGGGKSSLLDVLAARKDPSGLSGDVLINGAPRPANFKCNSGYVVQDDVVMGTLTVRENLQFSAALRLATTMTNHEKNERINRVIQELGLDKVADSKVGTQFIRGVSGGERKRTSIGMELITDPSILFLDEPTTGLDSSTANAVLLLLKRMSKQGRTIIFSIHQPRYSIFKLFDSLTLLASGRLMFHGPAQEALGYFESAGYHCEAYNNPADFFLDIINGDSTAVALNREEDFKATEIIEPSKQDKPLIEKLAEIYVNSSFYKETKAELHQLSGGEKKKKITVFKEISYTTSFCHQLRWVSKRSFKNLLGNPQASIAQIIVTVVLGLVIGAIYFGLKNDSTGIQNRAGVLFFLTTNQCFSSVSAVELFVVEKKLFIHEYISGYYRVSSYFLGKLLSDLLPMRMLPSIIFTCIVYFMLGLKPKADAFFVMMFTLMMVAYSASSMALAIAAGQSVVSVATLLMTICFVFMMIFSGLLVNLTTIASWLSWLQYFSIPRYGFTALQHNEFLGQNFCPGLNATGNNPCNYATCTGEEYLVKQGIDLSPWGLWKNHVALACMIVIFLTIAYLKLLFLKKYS
Source text: BCRP is an efflux pump located in the gut, liver canalicular membrane, and kidney, and is exposed to intracellular drug concentrations in the liver and the kidney.

SMILES | affinity for the ET receptors relative to parent compound [1] | time to peak plasma concentration ([2]; after the first dose of macitentan) | half-life in humans ([2]; humans) | plasma concentrations relative to macitentan ([2]; humans) | Drug-Drug Interaction [3] | EC50 [4] [µM] | CYP3A4 mRNA and enzyme activity [5] | time to steady state ([2]; humans, repeated administration) | absorption into the plasma ([2]; humans) | dose at which effect on hemoglobin decrease plateaus ([6]; Day 11 vs baseline Day -1) [mg] | maximum effect on hemoglobin decrease (Emax) ([6]; Day 11 vs baseline Day -1, nonlinear regression) | plasma ET-1 concentrations at steady-state [7] | dose of maximal or near-maximal effect in rats ([8]; EMA Assessment Report) [mg/kg] | maximal effective dose in rats ([8]; Iglarz 2014, Kunita-Takanezawa 2014) [mg/kg] | effect on the pharmacokinetics of 1 mg rosuvastatin [9]
NS(=O)(=O)Nc1ncnc(OCCOc2ncc(Br)cn2)c1-c1ccc(Br)cc1 [ACT-132577] | lower affinity | about 30 hours | approximately 48 hours | higher plasma concentrations than macitentan | No Drug-Drug Interaction has been observed | 7.2 to 8.7 | concentration-dependent increases | – | – | – | – | – | – | – | –
CCCNS(=O)(=O)Nc1ncnc(OCCOc2ncc(Br)cn2)c1-c1ccc(Br)cc1 [macitentan, propylsulfamic acid [5-(4-bromo-phenyl)-6-[2-(5-bromo-pyrimidin-2-yloxy)-ethoxy]-pyrimidin-4-yl]-amide] | – | – | about 16 hours | – | No Drug-Drug Interaction has been observed | 1.1 to 1.2 | concentration-dependent increases | steady state is reached by the third day of administration | absorbed slowly | 10 | around 1.23 g/dL | dose-dependent increase, with no further increase beyond the 10 mg oral dose | 10 | 30 | has not shown any effect

— patent publication US11464777B2, “Pharmaceutical composition for the treatment of pulmonary arterial hypertension” (Actelion Pharmaceuticals Ltd, priority 2018, dated 2022)
